Target: T1, interaction between TGFR (RI) and FKPB12 (Homo sapiens, UniProt P62942)
T1 construct: expressed in transfected cells; host or cells: 293A cells
Assay: Mammalian reverse two-hybrid system, GFP reporter, stable cell line (pCMV-tetOP-AD-RI-IRES-BD-FKBP12)
Type: cell-based
Details: 293A cells; 1 μg/ml Dox, 48 hrs; FK506 100 nM, AG1478 2.5 μM; FIG. 2
Description: Green Fluorescence Protein (GFP). To directly assay the expression of GFP, cells were cultured in 96 or 384 well low fluorescence assay plates with 100 or 50 μl of DMEM medium. Dox and agents were added at concentrations described below. Following 48-hrs of treatment, the medium in each well was replaced with PBS. The intensity of GFP was directly measured at 485 mn excitation and 525 nm emission with a fluorescence multi-well plate reader (CytoFluor II, PerSeptive Biosystems or Wallac Victor V Stacker, Perkin Elmer).
The mammalian reverse two-hybrid system of the present invention was tested with this protein-protein interaction pair to evaluate if the effect of FK506 on disrupting the interaction can be detected. To achieve this, the cytoplasmic domain of the TGFR (RI) was fused with the transcriptional activation domain (AD) of VP16 and FKBP12 was fused with the Gal4 DNA binding domain (BD).
A stable cell line harboring the construct TetR-KRAB, GFP reporter construct, and the construct pCMV-tetOP-AD-RI-IRES-BD-FKBP12 was selected to evaluate the effect of drug molecule FK506 on the interaction between TGFR (RI) and FKPB12. The intensity of GFP expression was monitored following 48 hrs of treatment of the cells with the inducer Dox and the agent FK506.
Expression of the GFP reporter gene was evaluated following the treatment. […]

T1 sequence (P62942 whole entry): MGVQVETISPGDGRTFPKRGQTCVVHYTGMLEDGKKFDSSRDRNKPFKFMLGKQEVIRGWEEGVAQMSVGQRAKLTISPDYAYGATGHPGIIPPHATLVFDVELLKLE

## COc1cc2ncnc(Nc3cccc(Cl)c3)c2cc1OC [AG1478]
  Dox induced GFP expression (GFP reporter gene): no effect

Reference: patent US20040067483A1, “Compositions, methods and kits for identying protein-protein interaction disrupting agents” (priority 2003, published 2004)
